Where two headings read alike, the source gives them in different places.
Tests used:
viable cells in culture = test: Cell viability assay (CellTiter-Glo Luminescent Cell Viability Assay, ATP quantitation, percent of vehicle control)
Description: Cell viability is determined using a homogeneous method, such as CellTiter-Glo® Luminescent Cell Viability Assay (Promega Corporation, Madison, WI.) to determine the number of viable cells in culture These assays are based on quantitation of the ATP present, which signals the presence of metabolically active cells. Luminescent values of compound treated cells are compared to that of cells treated with vehicle alone to determine the average cell viability as a percent of control.

[1] = test system: human TERT expression (hTERT mRNA); test: Quantitative real-time RT-PCR of hTERT mRNA expression (Ct, transcripts) in compound-treated cells; type: cell-based
Outline: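 Read-out is cycle threshold, the cycle at which probe fluorescence released by Taq 5′-nuclease activity crosses a set level; Ct falls as hTERT mRNA rises. cDNA of treated and untreated cells was compared, with starting transcripts quantified against a known-cDNA standard curve.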

## O=C(CCN1C(=O)c2cccc3cccc(c23)C1=O)Nc1ccon1 [compound 1349]
Viable cells in culture
  Average Cell Viability after 24 Hours (% DMSO): 76.50 % DMSO
[1]; quantitative real-time RT-PCR
  Average Number of hTERT Transcripts: 12.52

## CC(C)Cc1nnc(SCC(=O)Nc2ccc(Br)cn2)[nH]1 [compound 1350]
Viable cells in culture
  Average Cell Viability after 24 Hours (% DMSO): 98.43 % DMSO
[1]; quantitative real-time RT-PCR
  Average Number of hTERT Transcripts: 5.91

## CC1CCN(C(=O)CN(Cc2ccc(F)cc2)S(C)(=O)=O)CC1 [compound 1351]
Viable cells in culture
  Average Cell Viability after 24 Hours (% DMSO): 98.19 % DMSO
[1]; quantitative real-time RT-PCR
  Average Number of hTERT Transcripts: 5.17

## CC(C)COc1ccc(NC(=O)C2CC2)cc1 [compound 1352]
Viable cells in culture
  Average Cell Viability after 24 Hours (% DMSO): 83.84 % DMSO
[1]; quantitative real-time RT-PCR
  Average Number of hTERT Transcripts: 5.61

## Cc1ccc(NC(=O)NCc2ccccc2F)cc1C [compound 1353]
Viable cells in culture
  Average Cell Viability after 24 Hours (% DMSO): 87.98 % DMSO
[1]; quantitative real-time RT-PCR
  Average Number of hTERT Transcripts: 3.61

## O=C(O)/C=C1\NC(=O)c2ccccc21 [compound 1354]
Viable cells in culture
  Average Cell Viability after 24 Hours (% DMSO): 96.80 % DMSO
[1]; quantitative real-time RT-PCR
  Average Number of hTERT Transcripts: 14.31

## O=C(O)CC12CC3CC(C1)CC(CC(=O)O)(C3)C2 [compound 1355]
Viable cells in culture
  Average Cell Viability after 24 Hours (% DMSO): 95.78 % DMSO
[1]; quantitative real-time RT-PCR
  Average Number of hTERT Transcripts: 4.95

## O=C(NCCc1ccncc1)C(F)(F)F [compound 1356]
Viable cells in culture
  Average Cell Viability after 24 Hours (% DMSO): 101.39 % DMSO
[1]; quantitative real-time RT-PCR
  Average Number of hTERT Transcripts: 5.18

## COC(=O)c1cc(OC)c(OC)cc1NC(=S)N1CCN(C)CC1 [compound 1357]
Viable cells in culture
  Average Cell Viability after 24 Hours (% DMSO): 95.29 % DMSO
[1]; quantitative real-time RT-PCR
  Average Number of hTERT Transcripts: 9.07

## CNC(=O)C1CCN(Cc2ccc(F)cc2)CC1 [compound 1358]
Viable cells in culture
  Average Cell Viability after 24 Hours (% DMSO): 111.88 % DMSO
[1]; quantitative real-time RT-PCR
  Average Number of hTERT Transcripts: 7.53

## CCCn1c(=O)n(CC)c(=O)c2ccccc21 [compound 1359]
Viable cells in culture
  Average Cell Viability after 24 Hours (% DMSO): 104.81 % DMSO
[1]; quantitative real-time RT-PCR
  Average Number of hTERT Transcripts: 13.21

## CCOc1ccc(N2C(=O)CC(N3CCC4(CC3)OCCO4)C2=O)cc1 (stereo not drawn) [compound 1360]
Viable cells in culture
  Average Cell Viability after 24 Hours (% DMSO): 108.82 % DMSO
[1]; quantitative real-time RT-PCR
  Average Number of hTERT Transcripts: 16.98

## CSc1nc2nc(C)c(C(C)=O)c(C)n2n1 [compound 1361]
Viable cells in culture
  Average Cell Viability after 24 Hours (% DMSO): 109.24 % DMSO
[1]; quantitative real-time RT-PCR
  Average Number of hTERT Transcripts: 17.57

## CCCOc1ccc2c(c1)c1c3n2CCN(C)C3=NCC1 [compound 1362]
Viable cells in culture
  Average Cell Viability after 24 Hours (% DMSO): 75.90 % DMSO
[1]; quantitative real-time RT-PCR
  Average Number of hTERT Transcripts: 15.20

## CC1(C)CC(NC(=O)c2ccc(S(=O)(=O)N3CCOCC3)cc2)CC(C)(C)N1 [compound 1363]
Viable cells in culture
  Average Cell Viability after 24 Hours (% DMSO): 89.56 % DMSO
[1]; quantitative real-time RT-PCR
  Average Number of hTERT Transcripts: 32.11

## Cc1ccc(N2CC(C(=O)N3CC(C)CC(C)C3)CC2=O)c(C)c1 (stereo not drawn) [compound 1364]
Viable cells in culture
  Average Cell Viability after 24 Hours (% DMSO): 104.57 % DMSO
[1]; quantitative real-time RT-PCR
  Average Number of hTERT Transcripts: 9.06

## Cc1ccc(N2CC(C(=O)N3CCCC3)CC2=O)c(C)c1 (stereo not drawn) [compound 1365]
Viable cells in culture
  Average Cell Viability after 24 Hours (% DMSO): 99.89 % DMSO
[1]; quantitative real-time RT-PCR
  Average Number of hTERT Transcripts: 10.67

## CCc1nc2[nH]c3c(c(=O)n2n1)CCC3 [compound 1366]
Viable cells in culture
  Average Cell Viability after 24 Hours (% DMSO): 99.48 % DMSO
[1]; quantitative real-time RT-PCR
  Average Number of hTERT Transcripts: 10.02

## Nc1ccc(OCCCc2ccccc2)cc1 [compound 1367]
Viable cells in culture
  Average Cell Viability after 24 Hours (% DMSO): 94.27 % DMSO
[1]; quantitative real-time RT-PCR
  Average Number of hTERT Transcripts: 7.25

## C=C(C)Cn1c(CCO)nc2ccccc21 [compound 1368]
Viable cells in culture
  Average Cell Viability after 24 Hours (% DMSO): 106.63 % DMSO
[1]; quantitative real-time RT-PCR
  Average Number of hTERT Transcripts: 9.25

## Cc1nn2c(-c3cccnc3)nnc2s1 [compound 1369]
Viable cells in culture
  Average Cell Viability after 24 Hours (% DMSO): 98.38 % DMSO
[1]; quantitative real-time RT-PCR
  Average Number of hTERT Transcripts: 15.35

## C=CCNS(=O)(=O)c1ccc(C(=O)N2CCCCC2C)cc1 (stereo not drawn) [compound 1370]
Viable cells in culture
  Average Cell Viability after 24 Hours (% DMSO): 107.18 % DMSO
[1]
  Average Number of hTERT Transcripts: 11.58

## CCC(=O)Nc1c(Br)cc(C)cc1C(=O)O [compound 1371]
Viable cells in culture
  Average Cell Viability after 24 Hours (% DMSO): 105.87 % DMSO
[1]
  Average Number of hTERT Transcripts: 5.46

## O=S(=O)(Nc1cccc2cccnc12)N1CCCCCC1 [compound 1373]
Viable cells in culture
  Average Cell Viability after 24 Hours (% DMSO): 65.74 % DMSO
[1]
  Average Number of hTERT Transcripts: 37.20
